Measurements taken from ChEMBL document CHEMBL5696439 (Cancer Res, 2010).
Active and inactive are the calls of the source. The calls are words filed in the database; no cut-off is given here.

Assays:
[1] = target: Phosphatidylinositol 4,5-bisphosphate 3-kinase catalytic subunit gamma isoform (Homo sapiens, UniProt P48736); test: Inhibition of PI3Kgamma (unknown origin) using PIP2 as substrate measured after 15 to 30 mins by fluorescence polarization assay
[2] = test system: Tyrosine-protein kinase ABL1 (Homo sapiens), P00519 [E255K]; test: Inhibition of recombinant human full-length His-tagged ABL1 E255K mutant expressed in insect cells at 2 uM using Tyr 02 as substrate measured after 1 hr by Z'-LYTE assay relative to control; settings: Insect cell
[3] = target: RAC-alpha serine/threonine-protein kinase (Homo sapiens) (UniProt P31749); test: Inhibition of recombinant human full-length His-tagged AKT1 expressed in insect cells at 2 uM using Ser/Thr 06 as substrate measured after 1 hr by Z'-LYTE assay relative to control; settings: Insect cell
[4] = target: RAC-beta serine/threonine-protein kinase (Homo sapiens) (UniProt P31751); test: Inhibition of recombinant human full-length His-tagged AKT2 expressed in insect cells at 2 uM using Ser/Thr 06 as substrate measured after 1 hr by Z'-LYTE assay relative to control; settings: Insect cell
[5] = target: Casein kinase I isoform gamma-3 (Homo sapiens) (UniProt Q9Y6M4); test: Inhibition of recombinant human full-length GST-tagged CSNK1G3 expressed in insect cells at 2 uM using Ser/Thr 05 as substrate measured after 1 hr by Z'-LYTE assay relative to control; settings: Insect cell
[6] = target: Ephrin type-A receptor 1 (Homo sapiens) (UniProt P21709); test: Inhibition of recombinant human GST-tagged EPHA1 (568-976 residues) expressed in insect cells at 2 uM using Tyr 02 as substrate measured after 1 hr by Z'-LYTE assay relative to control; settings: Insect cell
[7] = test system: Tyrosine-protein kinase JAK2 (Homo sapiens), O60674 [V617F]; test: Inhibition of recombinant human GST-tagged JAK2 JH1 JH2 domains V617F mutant (532-1132 residues) expressed in insect cells at 2 uM using Tyr 06 as substrate measured after 1 hr by Z'-LYTE assay relative to control; settings: Insect cell
[8] = target: Mitogen-activated protein kinase kinase kinase 9 (Homo sapiens) (UniProt P80192); test: Inhibition of recombinant human GST-tagged MAP3K9 (1-500 residues) expressed in insect cells at 2 uM using Ser/Thr 07 as substrate measured after 1 hr by Z'-LYTE assay relative to control; settings: Insect cell
[9] = target: Mitogen-activated protein kinase 10 (Homo sapiens) (UniProt P53779); test: Inhibition of recombinant human full length GST-tagged MAPK10 expressed in insect cells at 2 uM using Ser/Thr 04 as substrate measured after 1 hr by Z'-LYTE assay relative to control; settings: Insect cell
[10] = target: Macrophage-stimulating protein receptor (Homo sapiens) (UniProt Q04912); test: Inhibition of recombinant human GST-tagged MST1R (983-1400 residues) expressed in insect cells at 2 uM using Tyr 06 as substrate measured after 1 hr by Z'-LYTE assay relative to control; settings: Insect cell
[11] = target: Serine/threonine-protein kinase PAK 4 (Homo sapiens) (UniProt O96013); test: Inhibition of recombinant human GST-tagged PAK4 (295-591 residues) expressed in insect cells at 2 uM using Ser/Thr 20 as substrate measured after 1 hr by Z'-LYTE assay relative to control; settings: Insect cell
[12] = test system: Platelet-derived growth factor receptor alpha (Homo sapiens), P16234 [V561D]; test: Inhibition of recombinant human GST-tagged PDGFRA V561D mutant (550-1089 residues) expressed in insect cells at 2 uM using Tyr 04 as substrate measured after 1 hr by Z'-LYTE assay relative to control; settings: Insect cell
[13] = target: cAMP-dependent protein kinase catalytic subunit alpha (Homo sapiens) (UniProt P17612); test: Inhibition of recombinant human His-tagged PRKACA (1-351 residues) expressed in E.coli at 2 uM using Ser/Thr 01 as substrate measured after 1 hr by Z'-LYTE assay relative to control
[14] = target: cGMP-dependent protein kinase 2 (Homo sapiens) (UniProt Q13237); test: Inhibition of recombinant human full length GST-tagged PRKG2 expressed in insect cells at 2 uM using Ser/Thr 01 as substrate measured after 1 hr by Z'-LYTE assay relative to control; settings: Insect cell
[15] = target: Rho-associated protein kinase 1 (Homo sapiens) (UniProt Q13464); test: Inhibition of recombinant human GST-tagged ROCK1 (1-535 residues) expressed in insect cells at 2 uM using Ser/Thr 07 as substrate measured after 1 hr by Z'-LYTE assay relative to control; settings: Insect cell
[16] = target: Ribosomal protein S6 kinase alpha-1 (Homo sapiens) (UniProt Q15418); test: Inhibition of recombinant human full length His-tagged RPS6KA1 expressed in insect cells at 2 uM using Ser/Thr 06 as substrate measured after 1 hr by Z'-LYTE assay relative to control; settings: Insect cell
[17] = target: Ribosomal protein S6 kinase alpha-2 (Homo sapiens) (UniProt Q15349); test: Inhibition of recombinant human full length GST-tagged RPS6KA2 expressed in insect cells at 2 uM using Ser/Thr 06 as substrate measured after 1 hr by Z'-LYTE assay relative to control; settings: Insect cell
[18] = target: Serine/threonine-protein kinase Sgk2 (Homo sapiens) (UniProt Q9HBY8); test: Inhibition of recombinant human GST-tagged SGK2 (54-427 residues) expressed in insect cells at 2 uM using Ser/Thr 06 as substrate measured after 1 hr by Z'-LYTE assay relative to control; settings: Insect cell
[19] = target: Angiopoietin-1 receptor (Homo sapiens) (UniProt Q02763); test: Inhibition of recombinant human GST-tagged TEK (817-1101 residues) expressed in insect cells at 2 uM using […] as substrate measured after 1 hr by Z'-LYTE assay relative to control; settings: Insect cell
NCI-H1975 = test: Antiproliferative activity against human NCI-H1975 cells assessed as cell growth inhibition incubated for 24 hrs by MTS assay; assay type: functional, cell-based; settings: NCI-H1975, 24 h
U-87 MG = test: Induction of apoptosis in human U-87MG cells assessed as reduction in S phase at 1 micromol/L incubated for 24 hrs by FACS analysis; assay type: functional, cell-based; settings: U-87MG ATCC, dose 1.0 µmol/L
HCT-116 = test: Induction of apoptosis in human HCT-116 cells assessed as reduction in S phase at 1 micromol/L incubated for 24 hrs by FACS analysis; assay type: functional, cell-based; settings: dose 1.0 µmol/L
MDA-MB-361 = test: Antitumor activity against human MDA-MB-361 cells xenografted in female nude mouse model assessed as suppression in P-AKT at S473 level at 6 to 12 mg/kg, po qd administered as 5 days on/2 days off regimen for 4 cycles by immunoblot analysis; assay type: functional, organism-based; settings: dose 6-12 mg/kg, time 28.0 day
mTORC2 (Homo sapiens) [20] = target: T1, mTORC2 (Homo sapiens) (UniProt P42345+Q6R327+Q9BVC4+Q9BPZ7); settings: PC3MM2, dose 0.1-1 µM, time 6.0 hrs
mTORC2 (Homo sapiens) [21] = target: T1, mTORC2 (Homo sapiens); settings: PC3MM2, dose 0.1-1 µM, time 6.0 hrs; remark: listed apart in the source

Sequence of RAC-beta serine/threonine-protein kinase (Homo sapiens) (P31751 whole entry, canonical isoform): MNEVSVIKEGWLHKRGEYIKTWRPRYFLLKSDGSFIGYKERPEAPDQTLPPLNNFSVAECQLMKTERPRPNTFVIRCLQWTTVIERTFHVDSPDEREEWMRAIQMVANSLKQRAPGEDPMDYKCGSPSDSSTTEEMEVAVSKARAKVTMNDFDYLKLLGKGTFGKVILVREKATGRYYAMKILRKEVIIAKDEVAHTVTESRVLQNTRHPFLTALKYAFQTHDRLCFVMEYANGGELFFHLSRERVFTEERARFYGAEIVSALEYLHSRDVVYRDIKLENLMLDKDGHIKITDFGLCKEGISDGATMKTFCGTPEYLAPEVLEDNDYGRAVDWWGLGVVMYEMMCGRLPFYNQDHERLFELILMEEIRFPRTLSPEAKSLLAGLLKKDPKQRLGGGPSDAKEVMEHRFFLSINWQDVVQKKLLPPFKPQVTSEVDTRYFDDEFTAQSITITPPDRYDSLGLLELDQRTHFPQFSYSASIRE
Sequence of Phosphatidylinositol 4,5-bisphosphate 3-kinase catalytic subunit gamma isoform (P48736 whole entry, canonical isoform): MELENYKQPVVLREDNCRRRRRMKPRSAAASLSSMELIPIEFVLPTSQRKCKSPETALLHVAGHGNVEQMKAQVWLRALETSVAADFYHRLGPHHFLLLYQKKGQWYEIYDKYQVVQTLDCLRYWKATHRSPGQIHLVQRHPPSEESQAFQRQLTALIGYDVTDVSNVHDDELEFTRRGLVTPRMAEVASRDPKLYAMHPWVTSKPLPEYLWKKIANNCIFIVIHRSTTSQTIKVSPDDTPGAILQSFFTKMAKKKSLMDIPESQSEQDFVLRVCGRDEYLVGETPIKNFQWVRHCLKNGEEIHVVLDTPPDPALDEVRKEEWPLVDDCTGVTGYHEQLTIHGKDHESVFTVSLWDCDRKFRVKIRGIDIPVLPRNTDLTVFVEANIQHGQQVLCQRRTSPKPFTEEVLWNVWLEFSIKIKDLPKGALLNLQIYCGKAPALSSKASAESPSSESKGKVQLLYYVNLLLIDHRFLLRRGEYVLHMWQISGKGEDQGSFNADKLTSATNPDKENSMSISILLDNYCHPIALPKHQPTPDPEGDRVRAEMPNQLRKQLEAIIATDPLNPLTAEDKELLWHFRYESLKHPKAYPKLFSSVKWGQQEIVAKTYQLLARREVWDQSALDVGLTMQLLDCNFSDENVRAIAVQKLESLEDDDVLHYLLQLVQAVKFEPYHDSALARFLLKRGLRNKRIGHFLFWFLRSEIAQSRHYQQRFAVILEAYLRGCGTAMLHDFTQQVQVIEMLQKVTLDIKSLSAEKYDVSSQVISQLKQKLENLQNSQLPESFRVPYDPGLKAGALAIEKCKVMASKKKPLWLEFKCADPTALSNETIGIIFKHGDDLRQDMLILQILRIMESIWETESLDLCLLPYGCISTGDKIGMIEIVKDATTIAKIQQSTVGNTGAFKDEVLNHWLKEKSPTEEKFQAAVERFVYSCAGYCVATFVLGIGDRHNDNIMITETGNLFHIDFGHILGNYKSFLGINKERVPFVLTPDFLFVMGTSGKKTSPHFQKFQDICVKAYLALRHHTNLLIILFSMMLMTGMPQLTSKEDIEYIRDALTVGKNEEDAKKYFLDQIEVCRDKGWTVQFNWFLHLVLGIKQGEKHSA
Sequence of Ribosomal protein S6 kinase alpha-1 (Homo sapiens) (Q15418 whole entry): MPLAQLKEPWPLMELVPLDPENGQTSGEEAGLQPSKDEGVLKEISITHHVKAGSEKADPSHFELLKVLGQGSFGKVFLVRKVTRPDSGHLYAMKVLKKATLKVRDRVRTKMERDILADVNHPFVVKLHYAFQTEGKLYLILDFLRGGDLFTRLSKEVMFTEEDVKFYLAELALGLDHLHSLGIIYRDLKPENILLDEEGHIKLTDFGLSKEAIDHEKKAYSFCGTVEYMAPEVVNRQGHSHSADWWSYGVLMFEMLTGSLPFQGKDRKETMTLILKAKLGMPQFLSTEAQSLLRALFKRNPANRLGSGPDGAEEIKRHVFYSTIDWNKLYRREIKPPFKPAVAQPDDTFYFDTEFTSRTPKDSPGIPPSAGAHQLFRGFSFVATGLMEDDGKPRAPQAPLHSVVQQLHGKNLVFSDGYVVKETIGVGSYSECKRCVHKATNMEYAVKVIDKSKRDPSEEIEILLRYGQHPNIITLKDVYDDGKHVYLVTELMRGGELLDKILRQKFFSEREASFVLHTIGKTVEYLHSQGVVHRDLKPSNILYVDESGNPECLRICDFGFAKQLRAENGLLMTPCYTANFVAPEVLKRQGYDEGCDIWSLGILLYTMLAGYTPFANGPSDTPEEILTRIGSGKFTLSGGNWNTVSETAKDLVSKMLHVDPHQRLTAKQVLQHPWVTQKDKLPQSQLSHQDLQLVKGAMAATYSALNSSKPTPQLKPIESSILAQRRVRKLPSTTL
Sequence of Serine/threonine-protein kinase Sgk2 (Homo sapiens) (Q9HBY8 whole entry, the tested form may be a part): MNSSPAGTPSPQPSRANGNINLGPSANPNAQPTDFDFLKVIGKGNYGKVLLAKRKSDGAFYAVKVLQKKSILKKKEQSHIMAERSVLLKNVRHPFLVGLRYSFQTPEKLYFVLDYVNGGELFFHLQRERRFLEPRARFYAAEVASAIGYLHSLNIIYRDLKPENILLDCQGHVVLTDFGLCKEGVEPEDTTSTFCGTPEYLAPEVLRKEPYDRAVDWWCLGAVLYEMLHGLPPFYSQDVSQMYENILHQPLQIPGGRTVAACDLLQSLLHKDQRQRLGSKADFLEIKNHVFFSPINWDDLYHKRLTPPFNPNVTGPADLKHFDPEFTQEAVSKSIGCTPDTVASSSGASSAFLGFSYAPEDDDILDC
Sequence of Tyrosine-protein kinase ABL1 (Homo sapiens), P00519 [E255K] (P00519 whole entry E255K): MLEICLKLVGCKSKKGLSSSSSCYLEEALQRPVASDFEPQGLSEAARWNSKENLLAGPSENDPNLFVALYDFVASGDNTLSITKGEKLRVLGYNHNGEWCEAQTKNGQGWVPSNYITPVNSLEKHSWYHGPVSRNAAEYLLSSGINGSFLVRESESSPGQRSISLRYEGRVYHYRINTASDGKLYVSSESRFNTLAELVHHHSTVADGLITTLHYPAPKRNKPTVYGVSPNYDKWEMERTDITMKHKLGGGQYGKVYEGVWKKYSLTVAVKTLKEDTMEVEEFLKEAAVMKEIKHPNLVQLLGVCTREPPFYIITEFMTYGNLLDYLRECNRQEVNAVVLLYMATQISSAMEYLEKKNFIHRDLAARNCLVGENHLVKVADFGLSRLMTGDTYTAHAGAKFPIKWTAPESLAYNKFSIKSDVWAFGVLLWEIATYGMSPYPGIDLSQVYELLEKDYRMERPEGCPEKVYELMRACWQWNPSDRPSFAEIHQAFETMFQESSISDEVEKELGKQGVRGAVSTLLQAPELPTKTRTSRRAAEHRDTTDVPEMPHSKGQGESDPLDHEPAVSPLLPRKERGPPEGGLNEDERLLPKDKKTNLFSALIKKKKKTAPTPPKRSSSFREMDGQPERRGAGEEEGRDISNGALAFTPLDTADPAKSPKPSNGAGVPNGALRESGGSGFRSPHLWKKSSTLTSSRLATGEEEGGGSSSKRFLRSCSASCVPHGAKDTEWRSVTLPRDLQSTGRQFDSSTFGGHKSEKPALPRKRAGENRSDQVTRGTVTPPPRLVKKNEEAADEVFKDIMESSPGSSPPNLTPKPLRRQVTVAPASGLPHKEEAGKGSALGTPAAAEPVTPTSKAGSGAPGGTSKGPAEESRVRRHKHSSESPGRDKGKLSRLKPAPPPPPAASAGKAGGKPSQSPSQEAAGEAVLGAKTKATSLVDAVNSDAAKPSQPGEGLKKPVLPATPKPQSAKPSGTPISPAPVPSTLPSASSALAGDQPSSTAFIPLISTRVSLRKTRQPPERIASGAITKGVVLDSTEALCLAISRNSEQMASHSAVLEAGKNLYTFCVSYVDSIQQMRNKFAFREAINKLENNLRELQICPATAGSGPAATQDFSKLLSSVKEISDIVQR
Sequence of cGMP-dependent protein kinase 2 (Homo sapiens) (Q13237 whole entry, the tested form may be a part): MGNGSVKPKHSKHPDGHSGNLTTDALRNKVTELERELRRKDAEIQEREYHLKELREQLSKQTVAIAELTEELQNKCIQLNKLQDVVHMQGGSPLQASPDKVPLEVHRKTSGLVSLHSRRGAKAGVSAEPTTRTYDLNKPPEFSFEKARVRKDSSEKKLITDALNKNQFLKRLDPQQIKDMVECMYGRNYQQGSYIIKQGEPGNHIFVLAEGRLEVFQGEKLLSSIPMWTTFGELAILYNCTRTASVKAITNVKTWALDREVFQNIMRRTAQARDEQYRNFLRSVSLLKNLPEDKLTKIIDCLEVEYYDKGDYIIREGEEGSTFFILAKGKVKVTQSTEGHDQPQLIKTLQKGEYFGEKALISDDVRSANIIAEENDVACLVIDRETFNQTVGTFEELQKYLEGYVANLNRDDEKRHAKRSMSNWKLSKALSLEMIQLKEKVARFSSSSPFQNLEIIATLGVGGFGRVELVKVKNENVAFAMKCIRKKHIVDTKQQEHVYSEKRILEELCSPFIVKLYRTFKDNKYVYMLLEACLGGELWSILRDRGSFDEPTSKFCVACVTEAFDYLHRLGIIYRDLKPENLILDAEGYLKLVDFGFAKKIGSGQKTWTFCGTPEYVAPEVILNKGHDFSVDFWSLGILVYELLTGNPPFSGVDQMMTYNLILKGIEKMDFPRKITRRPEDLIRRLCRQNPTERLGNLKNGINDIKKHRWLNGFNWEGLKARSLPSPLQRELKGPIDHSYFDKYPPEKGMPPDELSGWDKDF
Sequence of RAC-alpha serine/threonine-protein kinase (Homo sapiens) (P31749 whole entry): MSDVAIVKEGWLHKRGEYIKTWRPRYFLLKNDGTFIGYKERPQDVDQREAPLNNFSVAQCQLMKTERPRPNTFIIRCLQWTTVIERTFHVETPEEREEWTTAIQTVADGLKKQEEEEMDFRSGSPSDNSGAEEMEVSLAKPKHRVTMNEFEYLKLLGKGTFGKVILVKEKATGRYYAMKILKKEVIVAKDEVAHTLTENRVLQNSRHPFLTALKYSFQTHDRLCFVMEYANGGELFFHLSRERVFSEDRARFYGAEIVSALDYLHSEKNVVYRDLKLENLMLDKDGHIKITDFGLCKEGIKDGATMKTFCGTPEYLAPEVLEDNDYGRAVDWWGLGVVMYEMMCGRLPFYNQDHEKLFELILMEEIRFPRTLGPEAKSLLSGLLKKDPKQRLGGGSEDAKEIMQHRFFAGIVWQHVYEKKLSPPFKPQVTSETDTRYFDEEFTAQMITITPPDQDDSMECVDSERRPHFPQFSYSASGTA

CNC(=O)Nc1ccc(-c2nc(N3CC4CCC(C3)O4)c3cnn(C4CCC5(CC4)OCCO5)c3n2)cc1
IC50 [1]: > 10000 nM
inhibition [2]: 5%
inhibition [3]: -5%
inhibition [4]: 5%
inhibition [5]: -1%
inhibition [6]: 3%
inhibition [7]: 4%
inhibition [8]: 11%
inhibition [9]: 14%
inhibition [10]: -1%
inhibition [11]: 13%
inhibition [12]: 3%
inhibition [13]: -3%
inhibition [14]: 9%
inhibition [15]: -8%
inhibition [16]: 4%
inhibition [17]: -1%
inhibition [18]: 5%
inhibition [19]: 10%
IC50 (NCI-H1975): 70 nM
Activity (U-87 MG): Active
Activity (HCT-116): Active
Activity (MDA-MB-361): Active
inhibition (mTORC2 (Homo sapiens) [20]): Active
inhibition (mTORC2 (Homo sapiens) [21]): inactive
